Paper PMC8268581, “Identification of 3,4-Dihydro-2H,6H-pyrimido[1,2-c][1,3]benzothiazin-6-imine Derivatives as Novel Selective Inhibitors of Plasmodium falciparum Dihydroorotate Dehydrogenase” (International Journal of Molecular Sciences, 2021)
Where two headings read alike, the source gives them in different places.

What was measured:
PfDHODH = biological target: T1, PfDHODH (Plasmodium falciparum, UniProt Q08210); experiment: PfDHODH inhibition assay (DCIP end-point, 384-well); format: biochemical
T1 construct: encoding amino acid residues 158 to 569 fused to a His6-SUMO tag in its N-terminus; His6-SUMO (N, cleaved yes); made in house; host or cells: E. coli BL21 Star (DE3), pETSUMO/PfDHODH
Method: The screening of 40,400 compounds was conducted in 384-well plates by adapting the end-point assay reported before. First, 1 µL of 200 µM compound was transferred into 384-well plates using a Benchtop Multi-Pipetter EDR-384SR (Biotech Co., Ltd., Tokyo, Japan). […] Next, 38 µL of assay mix (100 mM HEPES-NaOH pH 7.5, 5% (v/v) glycerol, 150 mM NaCl, 0.05% (v/v) Triton X-100, 15 µM decylubiquinone (dUQ, Sigma), 120 µM 2,6-dichlorophenolindophenol (DCIP, Sigma), and 20 nM PfDHODH) were dispensed into all wells and mixed at 600 rpm for 1 min by a MixMate®® (Eppendorf). The reaction was started by the addition of 5 µL of 1.8 mM L-DHO (Sigma) as the substrate and mixed as described above for 20 s. The absorbance at 600 nm was recorded using a SpectraMax®® Paradigm®® Multi-Mode Microplate Reader (Molecular Devices) before (t0) and after 20 min (t20) incubation at room temperature. The readings at t0 were subtracted from t20, and PfDHODH inhibition was calculated as the inhibition relative to the negative and positive controls in a single-point assay. Hits were defined as compounds inhibiting more than 50% of PfDHODH activity at 4.5 µM. The quality of the screening system was evaluated by calculating statistical parameters: Z′-factor, S/N, S/B, SW, and CV, as previously reported. The IC50 values of the hit compounds were determined using the same assay system containing serial dilutions of each compound in triplicates (22.7, 6.8, 2.27, 0.68, 0.227, 0.068, 0.023, 0.007, 0.002, 0.0007 µM) using GraphPad Prism 8.0 software (GraphPad Software Inc., San Diego, CA, USA).

[1] = Cytotoxicity assay, HDF (Cell Counting Kit-8); format: cell-based; settings: human dermal fibroblast (HDF) cells, normal human dermal fibroblasts
Method: (§1) Human dermal fibroblast cells (HDF, Zenbio, Inc., Durham, NC, USA) were cultured in Dulbecco’s Modified Eagle Medium/Nutrient Mixture F-12 medium (DMEM/F12, Gibco), human pancreatic carcinoma cells (PANC-1, DS Pharma Biomedical, Co., Ltd.) were cultured in DMEM (Gibco), and human colorectal adenocarcinoma cells (DLD-1, Taiho Pharmaceutical Company) were cultured in RPMI-1640 medium (FUJIFILM Wako Pure Chemicals). The culture mediums were supplemented with 10% (v/v) heat-inactivated fetal bovine serum (Gibco) and the cells were maintained at 37 °C under 5% CO2.
(§2) HDF, PANC-1, and DLD-1 were seeded at 2.5 × 10^4 cells/well on a 96-well plate and incubated at 37 °C under 5% CO2 overnight. The cells were then washed with PBS and the medium was replaced with 99 µL of fresh media. Then, 1 µL of the compounds or DMSO was added to the respective wells. As controls, wells containing 1% (v/v) DMSO in column 1 and wells containing only the culture medium in column 12 were used as the negative and positive controls, respectively. After 48 h of incubation, the cells were washed with PBS, and 99 µL of fresh media was replaced, followed by the addition of 10 µL of Cell Counting Kit-8 (Dojindo) to each well. After 3 h of incubation, the absorbance was measured at 450 nm using a SpectraMax®® Paradigm®® Multi-Mode microplate Reader. The calculation of cell viability in the test well was based on the absorbance of control wells according to the manufacturer’s protocol. The mean of quadruplet values was used to calculate the CC50 using GraphPad Prism 8.0 software.

[2] = Cytotoxicity assay, PANC-1 (Cell Counting Kit-8); format: cell-based; settings: PANC-1 human pancreatic carcinoma cells
Method: as §1, §2

HsDHODH = biological target: T2, HsDHODH (Homo sapiens, UniProt Q02127); experiment: HsDHODH counter-assay; format: biochemical; settings: purified recombinant HsDHODH, tested at 4.5 µM; read-out: IC50 DHODH Hs
T2 construct: made in house
Method: Selected hit compounds from PfDHODH screening were tested for potential inhibition against HsDHODH at 4.5 µM. The HsDHODH used in this study was purified as previously reported. The HsDHODH assay was performed similarly to that for PfDHODH, but in an assay mix consisting of 50 mM Tris-HCl pH 8.0, 0.1% (v/v) Triton X-100, 2 mM potassium cyanide (KCN, Wako), 60 µM dUQ, and 120 µM DCIP, with the reaction started by the addition of 200 µM L-DHO (final concentration) in triplicate. For this assay, DMSO was used as a negative control and 10 µM of lapachol was used as a positive control (100% inhibition). The relative inhibition was calculated as described above.

[3] = recombinant tag-free PfDHODH, 20 min, serial dilutions 0.0007-22.7 µM, read-out: IC50 DHODH Pf

T1 sequence (Q08210 158-569): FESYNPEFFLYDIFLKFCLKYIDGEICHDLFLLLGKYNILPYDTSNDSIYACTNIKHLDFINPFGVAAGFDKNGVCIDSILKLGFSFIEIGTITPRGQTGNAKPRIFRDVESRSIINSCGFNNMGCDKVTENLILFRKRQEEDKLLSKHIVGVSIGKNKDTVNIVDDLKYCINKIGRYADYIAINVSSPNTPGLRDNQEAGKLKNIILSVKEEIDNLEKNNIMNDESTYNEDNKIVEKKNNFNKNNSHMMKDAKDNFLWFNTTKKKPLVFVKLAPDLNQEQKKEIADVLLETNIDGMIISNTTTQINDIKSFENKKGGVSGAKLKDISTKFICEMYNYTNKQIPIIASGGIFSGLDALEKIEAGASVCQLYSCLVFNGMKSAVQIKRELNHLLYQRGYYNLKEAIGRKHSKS
T2 sequence (Q02127 whole entry): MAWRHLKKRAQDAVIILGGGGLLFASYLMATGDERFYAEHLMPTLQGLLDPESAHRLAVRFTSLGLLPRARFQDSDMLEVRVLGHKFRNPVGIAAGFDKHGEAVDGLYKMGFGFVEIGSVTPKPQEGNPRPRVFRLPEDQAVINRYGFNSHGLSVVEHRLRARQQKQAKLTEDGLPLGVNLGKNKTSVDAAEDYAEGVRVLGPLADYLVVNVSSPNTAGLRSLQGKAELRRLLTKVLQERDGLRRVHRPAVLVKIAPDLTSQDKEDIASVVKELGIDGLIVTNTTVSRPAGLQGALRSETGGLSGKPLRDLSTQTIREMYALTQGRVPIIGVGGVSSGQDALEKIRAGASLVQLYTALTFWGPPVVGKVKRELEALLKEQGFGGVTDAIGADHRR

SMILES | IC50 (PfDHODH; [3]) [µM] | EC50 at 48 h [1] [µM] | EC50 at 48 h [2] [µM] | IC50 (HsDHODH) [µM] | IC50 (PfDHODH) [µM] | fold increase in the PfDHODH IC50 compared to 1 (PfDHODH) [fold]
N=C1Sc2cc(-c3ccc4ccccc4c3)ccc2C2=NCCCN12 [Compound 1] | 0.65 ± 0.05 | > 10 | > 10 | > 4.5 | – | –
N=C1Sc2cc(-c3ccc4c(c3)OCO4)ccc2C2=NCCCN12 [Compound 3] | 1.18 ± 0.04 | > 10 | > 10 | > 4.5 | – | –
N=C1Sc2cc(-c3ccc4c(c3)OCCO4)ccc2C2=NCCCN12 [Compound 4] | 0.97 ± 0.08 | > 10 | > 10 | > 4.5 | – | –
N=C1Sc2cc(-c3ccc4cnccc4c3)ccc2C2=NCCCN12 [Compound 5] | 0.96 ± 0.09 | > 10 | > 10 | > 4.5 | – | –
N=C1Sc2cc(-c3ccc4c(C(=O)OC(F)(F)F)c[nH]c4c3)ccc2C2=NCCCN12 [Compound 6] | 0.7 ± 0.04 | > 10 | > 10 | > 4.5 | – | –
N=C1Sc2cc(-c3cc4ccccc4o3)ccc2C2=NCCCN12 [Compound 7] | 1.3 ± 0.05 | > 10 | > 10 | > 4.5 | – | –
N=C1Sc2cc(/C=C/c3ccccc3)ccc2C2=NCCCN12 [Compound 8] | – | > 10 | > 10 | > 4.5 | 1.07 ± 0.05 | –
CC(C)(C)N=C1Sc2cc(-c3cc4ccccc4s3)ccc2C2=NCCCN12 [Compound 10] | 3.84 ± 0.09 | > 10 | > 10 | > 4.5 | – | 6
N=C1Sc2cc(-c3ccccc3)ccc2C2=NCCCN12 [Compound 12] | 0.68 ± 0.05 | > 10 | > 10 | > 4.5 | – | –
COC(=O)c1ccc(-c2ccc3c(c2)SC(=N)N2CCCN=C32)cc1 [Compound 13] | 1.22 ± 0.05 | > 10 | > 10 | > 4.5 | – | –
N#Cc1ccc(-c2ccc3c(c2)SC(=N)N2CCCN=C32)cc1 [Compound 14] | 3.89 ± 0.23 | > 10 | > 10 | > 4.5 | – | –
N=C1Sc2cc(-c3ccc(C(F)(F)F)cc3)ccc2C2=NCCCN12 [Compound 15] | 2.31 ± 0.11 | > 10 | > 10 | > 4.5 | – | –
CSc1ccc(-c2ccc3c(c2)SC(=N)N2CCCN=C32)cc1 [Compound 17] | 0.96 ± 0.07 | > 10 | > 10 | > 4.5 | – | –
N=C1Sc2cc(-c3ccc(OC(F)(F)F)cc3)ccc2C2=NCCCN12 [Compound 18] | 1.43 ± 0.06 | > 10 | > 10 | > 4.5 | – | –
N=C1Sc2cc(-c3ccc(C(=O)c4ccccc4)cc3)ccc2C2=NCCCN12 [Compound 19] | 1.07 ± 0.05 | > 10 | > 10 | > 4.5 | – | –
C#CCOCc1ccc(C(=O)c2ccc(-c3ccc4c(c3)SC(=N)N3CCCN=C43)cc2)cc1 [Compound 20] | 1.21 ± 0.06 | > 10 | > 10 | > 4.5 | – | –
N=C1Sc2cc(-c3cccc([N+](=O)[O-])c3)ccc2C2=NCCCN12 [Compound 21] | 3.68 ± 0.31 | > 10 | > 10 | > 4.5 | – | –
CC(C)Oc1cccc(-c2ccc3c(c2)SC(=N)N2CCCN=C32)c1 [Compound 22] | 1.56 ± 0.05 | > 10 | > 10 | > 4.5 | – | –
CCc1cccc(-c2ccc3c(c2)SC(=N)N2CCCN=C32)c1 [Compound 25] | 1.52 ± 0.08 | > 10 | > 10 | > 4.5 | – | –
N=C1Sc2cc(-c3ccccc3-c3ccccc3)ccc2C2=NCCCN12 [Compound 27] | 3.3 ± 0.1 | > 10 | > 10 | > 4.5 | – | –
c1ccc(-c2ccc3c(c2)SN2CCCN=C32)cc1 [Compound 30] | 4.26 ± 0.12 | > 10 | > 10 | > 4.5 | – | –
c1ccc2c(-c3ccc4c(c3)SN3CCCN=C43)cccc2c1 [Compound 31] | 1.1 ± 0.08 | > 10 | > 10 | > 4.5 | – | –
c1cc2c(cc1-c1ccc3c(c1)SN1CCCN=C31)OCO2 [Compound 32] | 1.29 ± 0.09 | > 10 | > 10 | > 4.5 | – | –
c1ccc(-c2ccc3c(c2)C2=NCCCN2S3)cc1 [Compound 36] | 1.51 ± 0.04 | 8.38 | > 10 | > 4.5 | – | –
COC(=O)c1ccc(-c2ccc3c(c2)SN2CCCN=C32)cc1 [Compound 37] | 1.15 ± 0.07 | 8.43 | > 10 | > 4.5 | – | –
O=[N+]([O-])c1ccc(-c2ccc3c(c2)SN2CCCN=C32)cc1 [Compound 39] | 1.3 ± 0.04 | > 10 | > 10 | > 4.5 | – | –
COC(=O)c1cccc(-c2ccc3c(c2)SN2CCCN=C32)c1 [Compound 40] | 1.43 ± 0.02 | 9.16 | > 10 | > 4.5 | – | –
COc1ccccc1-c1ccc2c(c1)SN1CCCN=C21 [Compound 42] | 1.18 ± 0.05 | 9.77 | > 10 | > 4.5 | – | –
O=[N+]([O-])c1ccccc1-c1ccc2c(c1)SN1CCCN=C21 [Compound 43] | 1.15 ± 0.06 | 9.44 | > 10 | > 4.5 | – | –
